Where “and” joins values, the source holds several entries; their conditions need not be identical. Equal values may be shown once. Read-outs that look alike come from different tables or passages of the source.
Legend:
[1] = tested on: MCF7 cell line; assay: In vitro cytotoxic activity, MTT method, MCF7; type: cell-based, human; details: for IC50: MTT
Outline: (§1)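 Monolayers formed over 24 h at 37 °C from 10^5 cells/mL were treated with graded compound concentrations, doxorubicin serving as reference. Viability came from MTT reduction over 1–5 h (5% CO2), absorbance at 560 nm with 620 nm background subtraction.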

[2] = tested on: A549 cell line; assay: In vitro cytotoxic activity, MTT method, A549
Outline: as §1

[3] = Cytotoxicity on normal cell line WI-38; type: cell-based, human; details: human, WI-38 cells (normal fetal lung fibroblasts)
[4] = tested on: WI-38 cell line; assay: Cytotoxicity on normal cell line WI-38; type: cell-based, human; details: for IC50: read-out: Toxicity on WI38 IC50 ± SD
[5] = tested on: MCF7 cell line; assay: Annexin-V FITC/PI apoptosis assay, MCF7; type: cell-based, human; details: MCF7, compound at IC50, 24 h
Protocol: (www.biovision.com). […] These stained cells were measured using flow cytometry with an excitation wavelength of 488 nm and an emission wavelength of 530 nm. The results were then analyzed with the Cell quest software.
To further investigate whether the anti-proliferative activity for compound 7e or 8d is harmonious with the apoptosis induction within A549 or MCF7 cells pointed out by the increased cell population in G2/M phase in 7e-treated A549 cells and S phase in 8d-treated MCF7 cells, respectively, and AnnexinV-FITC/PI dual staining analysis was used for the apoptosis assay (Fig. 3).

[6] = molecular target: Eef2 kinase (Homo sapiens, UniProt O00418); assay: Eef2 kinase inhibition; type: biochemical
[7] = molecular target: T1, IKB kinase B (Homo sapiens, UniProt O14920); assay: IKB kinase inhibition; type: biochemical; details: for %inh: IκB
T1 sequence (O14920 1-756): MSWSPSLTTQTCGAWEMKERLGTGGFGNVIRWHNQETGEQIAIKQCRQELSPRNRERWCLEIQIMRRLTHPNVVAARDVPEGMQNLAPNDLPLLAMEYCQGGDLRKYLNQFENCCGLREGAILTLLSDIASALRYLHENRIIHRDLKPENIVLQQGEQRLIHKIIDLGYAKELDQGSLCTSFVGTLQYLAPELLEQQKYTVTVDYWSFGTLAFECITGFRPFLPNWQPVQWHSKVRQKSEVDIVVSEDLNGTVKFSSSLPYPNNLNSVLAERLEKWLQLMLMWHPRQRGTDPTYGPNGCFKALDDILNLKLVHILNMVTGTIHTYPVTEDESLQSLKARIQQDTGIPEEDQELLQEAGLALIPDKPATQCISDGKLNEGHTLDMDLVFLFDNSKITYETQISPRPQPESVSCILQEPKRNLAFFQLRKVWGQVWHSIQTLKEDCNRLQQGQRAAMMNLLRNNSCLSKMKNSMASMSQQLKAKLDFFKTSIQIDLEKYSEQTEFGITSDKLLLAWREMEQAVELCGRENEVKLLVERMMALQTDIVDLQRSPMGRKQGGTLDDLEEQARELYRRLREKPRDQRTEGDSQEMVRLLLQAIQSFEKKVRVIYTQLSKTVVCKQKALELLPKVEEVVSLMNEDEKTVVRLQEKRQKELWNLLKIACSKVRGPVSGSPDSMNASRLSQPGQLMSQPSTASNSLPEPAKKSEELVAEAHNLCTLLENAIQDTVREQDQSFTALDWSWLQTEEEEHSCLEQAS

Compound `CC(=O)c1ccc(NC(=O)c2sc3nc(C)c4c(c3c2N)CC(C)(O)C(C(C)=O)C4c2ccc(N(C)C)cc2)cc1` (centres unmarked) [Compound 8d, 7-Acetyl-N-(4-acetylphenyl)-1-amino-5,8-dimethyl-8-hydroxy-6-(4-N,N-dimethylaminophenyl)-6,7,8,9-tetrahydrothieno[2,3-c]isoquinoline-2-carboxamide] has an IC50 ([1]; Homo sapiens, MCF7, MCF7 cell line) of 170 nM, a Toxicity % ([1]; MCF7, Conc. 0.0487 µMol) of 21.79% and a Viability % ([1]; MCF7, Conc. 0.0487 µMol) of 78.2125%. For the same compound, the Viability % ([1]; MCF7, Conc. 0.0975 µMol) was 54.4424%, the Toxicity % ([1]; MCF7, Conc. 0.195 µMol) was 54.13% and the Viability % ([1]; MCF7, Conc. 0.195 µMol) was 45.87%. It also gave a Toxicity % ([1]; MCF7, Conc. 0.391 µMol) of 65.48%, a Viability % ([1]; MCF7, Conc. 0.391 µMol) of 34.52% and a Toxicity % ([1]; MCF7, Conc. 0.781 µMol) of 88.6%. The Viability % ([1]; MCF7, Conc. 0.781 µMol) was 11.4%, the Toxicity % ([1]; MCF7, Conc. 1.562 µMol) was 93.83% and the Viability % ([1]; MCF7, Conc. 1.562 µMol) was 6.168%. The Toxicity % ([1]; MCF7, Conc. 3.125 µMol) was 94.61%, the Viability % ([1]; MCF7, Conc. 3.125 µMol) was 5.392% and the Toxicity % ([1]; MCF7, Conc. 6.25 µMol) was 96.41%. For the same compound, the Viability % ([1]; MCF7, Conc. 6.25 µMol) was 3.595%, the Toxicity % ([1]; MCF7, Conc. 12.5 µMol) was 97.06% and the Viability % ([1]; MCF7, Conc. 12.5 µMol) was 2.941%. For the same compound, the Toxicity % ([1]; MCF7, Conc. 25 µMol) was 97.55%, the Viability % ([1]; MCF7, Conc. 25 µMol) was 2.451% and the IC50 ([1]; MCF7 cell line) was 117 ± 4 nM. The Toxicity % ([2]; A549, Conc. 0.04875 µMol) was 13.49%, the Toxicity % ([2]; A549, Conc. 0.0975 µMol) was 15.39% and the Toxicity % ([2]; A549, Conc. 0.195 µMol) was 19.17%. The Viability % ([2]; A549, Conc. 0.195 µMol) was 80.83%, the Toxicity % ([2]; A549, Conc. 0.391 µMol) was 43.87% and the Viability % ([2]; A549, Conc. 0.391 µMol) was 56.13%. For the same compound, the Toxicity % ([2]; A549, Conc. 0.781 µMol) was 53.45%, the Viability % ([2]; A549, Conc. 0.781 µMol) was 46.55% and the Toxicity % ([2]; A549, Conc. 1.562 µMol) was 68.4%. For the same compound, the Viability % ([2]; A549, Conc. 1.562 µMol) was 31.6%, the Toxicity % ([2]; A549, Conc. 3.125 µMol) was 82.68% and the Viability % ([2]; A549, Conc. 3.125 µMol) was 17.32%. It also gave a Toxicity % ([2]; A549, Conc. 6.25 µMol) of 88.4%, a Viability % ([2]; A549, Conc. 6.25 µMol) of 11.6% and a Toxicity % ([2]; A549, Conc. 12.5 µMol) of 96.41%. It also gave a Viability % ([2]; A549, Conc. 12.5 µMol) of 3.59%, a Toxicity % ([2]; A549, Conc. 25 µMol) of 96.65% and a Viability % ([2]; A549, Conc. 25 µMol) of 3.353%. It also gave an IC50 ([2]; Homo sapiens, read-out: IC50 ± SD) of 515 ± 2 nM, a viability at 3.125 µM ([3]; WI38) of 86.3% and a viability at 1.55 µM ([3]; WI38, 1.55uM (log conc. 0.19), read-out: % viability) of 96.7%. For the same compound, the viability at 6.25 µM ([3]; WI38, 6.25uM (log conc. 0.8), read-out: % viability) was 74%, the viability at 12.5 µM ([3]; WI38, 12.5uM (log conc. 1.1), read-out: % viability) was 62.8% and the viability at 25 µM ([3]; WI38, 25uM (log conc. 1.4), read-out: % viability) was 46.9%. The IC50 ([4]; Homo sapiens, WI-38, normal human fetal lung fibroblast WI-38) was 23300 nM, the “Selectivity index (SI)” value ([4]; IC50 in WI-38 / IC50 in A549) was 45 and 45.24 and the “% viability” value ([4]; WI38, 6.25uM (log conc. 0.8), 6.25 µM) was 73.9744%. The “% viability” value ([4]; WI38, 25uM (log conc. 1.4), 25 µM) was 46.8729%, the IC50 ([4]; normal human fetal lung fibroblast WI-38) was 23300 ± 930 nM and the early apoptotic population [5] was 22.38%. The late apoptotic population [5] was 26.96%, the “population of necrotic cells” value [5] was 5.04% and the “%inh” value ([6]; Eef2, conc 0.01 (log -2)) was 16.5%. For the same compound, the “%inh” value ([6]; Eef2, conc 0.1 (log -1)) was 32.8%, the “%inh” value ([6]; Eef2, conc 1 (log 0)) was 48.2% and the “%inh” value ([6]; Eef2, conc 10 (log 1)) was 76.5%. The “%inh” value ([6]; Eef2, conc 100 (log 2)) was 91.7%, the IC50 ([6]; read-out: Eef2 kinase (IC50 ± SD)) was 689 ± 36 nM and the “%inh” value ([7]; conc 0.01 (log -2)) was 21.8%. For the same compound, the “%inh” value ([7]; conc 0.1 (log -1)) was 42.3%, the “%inh” value ([7]; conc 1 (log 0)) was 63.9% and the “%inh” value ([7]; conc 10 (log 1)) was 86.4%. For the same compound, the “%inh” value ([7]; conc 100 (log 2)) was 93.7% and the IC50 ([7]; read-out: IKB kinase B (IC50 ± SD)) was 240 ± 13 nM.

Reference: paper PMC10873978, “Novel tetrahydroisoquinolines as DHFR and CDK2 inhibitors: synthesis, characterization, anticancer activity and antioxidant properties” (BMC Chemistry, 2024)
